In patent US7838023B2, “Furoxan compounds, compositions and methods of use” (NitroMed, Inc., priority 2005, dated 2010):
pIC50: −log10 of the molar value. Structures can show the parent of a compound that is named as a salt. Where two headings read alike, the source gives them in different places.

Key:
[1] = tested on: Human coronary artery endothelial cells (EC); assay: Endothelial cell (EC) antiproliferation assay; type: cell-based; conditions: inhibition of proliferation, viable cell count ~68 hours after addition
Method: (§1) Human coronary artery smooth muscle cells (SMC) and endothelial cells (EC) were supplied by Cambrex Bio Science Walkersville, Inc. (Walkersville, MD). The smooth muscle cells were maintained in a basal medium, EBM (Cambrex Bio Science Walkersville, Inc), without phenol red and supplemented with 5% (v/v) fetal bovine serum (FBS), human recombinant epidermal growth factor (EGF), human recombinant fibroblast growth factor (FGF), bovine insulin, 50 μg/mL gentamicin sulfate, and 50 ng/mL amphotericin B (all obtained from Cambrex Bio Science Walkersville, Inc. as SMGM2 SingleQuots). The endothelial cells were grown in a modified EGM2-MV medium (Cambrex Bio Science Walkersville, Inc.), which had the same, phenol red-free, basal medium, EBM, as used in the smooth muscle cell medium, but were supplemented with 5% (v/v) fetal bovine serum (FBS), human recombinant epidermal growth factor (EGF), human recombinant fibroblast growth factor (FGF), vascular endothelial growth factor (VEGF), recombinant insulin-like growth factor-1 (IGF-1), ascorbic acid, 50 μg/mL gentamicin sulfate, and 50 ng/mL amphotericin B (all supplied by Cambrex Bio Science Walkersville, Inc. as EGM2-MV SingleQuots). All cells were incubated under humidified 95% air-5% CO2 at 37° C.
(§2) For the SMC/EC Antiproliferation Assay, the cells were seeded at 4×10^4 viable cells in 2 mL of the appropriate medium per well of a Corning tissue culture 24 well plate (Corning, N.Y.). Stock solutions of the test compounds were prepared just prior to addition to the cells by dissolving in DMSO at a concentration 1000 times the highest concentration to be assayed. This stock solution was diluted, as required, with DMSO to the required concentration. On the same day the cells were seeded, but after they had attached and spread out (about 3 hr), each test compound in varying concentrations (2 μL of the diluted stock solutions) was added to four replicate wells (n=4) for each concentration. Control cultures received 2 μL of DMSO per well (n=4). On the following morning, the cultures were examined microscopically and their condition, including evidence of cytotoxicity, recorded. ˜68 hours after the addition of the test compound, the cultures were examined microscopically and the viable cells counted with a hemacytometer following trypsinization with 0.25% trypsin-1 mM EDTA. Trypan Blue dye exclusion was used to discriminate between viable and dead cells. The results are presented as % of the control viable cell count (mean±SEM) and are used to determine the IC50 for the inhibition of proliferation of vascular smooth muscle and endothelial cells.

[2] = tested on: Human coronary artery smooth muscle cells (SMC); assay: Vascular smooth muscle cell (SMC) antiproliferation assay; type: cell-based; conditions: inhibition of proliferation, viable cell count ~68 hours after addition
Method: as §1, §2

[3] = Homo sapiens, Endothelial cell, EC strain 3033, read-out: EC Strain 3033, IC50
[4] = Homo sapiens, SMC strain 3033, read-out: SMC Strain 3033, IC50

In the case of `O=S(=O)(c1ccccc1)c1c(OCCN(CCOc2no[n+]([O-])c2S(=O)(=O)c2ccccc2)CCOc2no[n+]([O-])c2S(=O)(=O)c2ccccc2)no[n+]1[O-]` [Example 1d, Ethanamine, 2-[[5-oxido-4-(phenylsulfonyl)-1,2,5-oxadiazol-3-yl]oxy]-N,N-bis[2-[[5-oxido-4-(phenylsulfonyl)-1,2,5-oxadiazol-3-yl]oxy]ethyl]-, 2-hydroxy-1,2,3-propanetricarboxylate], the pIC50 [1, 3] was 6.35, the pIC50 ([1]; Homo sapiens, Endothelial cell, EC strain 5675-1, read-out: EC Strain 5675-1, IC50) was 6.34 and the pIC50 [2, 4] was 8.22. For the same compound, the pIC50 ([2]; Homo sapiens, SMC strain 5286, read-out: SMC Strain 5286, IC50) was 7.77 and the pIC50 ([2]; Homo sapiens, SMC strain 9557-1, read-out: SMC Strain 9557-1, IC50) was 8.10.

With `O=S(=O)(c1ccccc1)c1c(OCCNCCOc2no[n+]([O-])c2S(=O)(=O)c2ccccc2)no[n+]1[O-]` [Example 2b, Ethanamine, 2-[[5-oxido-4-(phenylsulfonyl)-1,2,5-oxadiazol-3-yl]oxy]-N-[2-[[5-oxido-4-(phenylsulfonyl)-1,2,5-oxadiazol-3-yl]oxy]ethyl]-, 2-hydroxy-1,2,3-propanetricarboxylate (1:1) (salt)] the pIC50 [1, 3] was 6.16 and the pIC50 [2, 4] was 7.15.

`O=S(=O)(c1ccccc1)c1c(OCC(COc2no[n+]([O-])c2S(=O)(=O)c2ccccc2)Oc2no[n+]([O-])c2S(=O)(=O)c2ccccc2)no[n+]1[O-]` [Example 4] gave a pIC50 ([1]; EC strain 3033, read-out: EC Strain 3033, IC50) of 6.46, a pIC50 ([2]; SMC strain 5286, read-out: SMC Strain 5286, IC50) of 7.89 and a pIC50 ([2]; SMC strain 9557-1, read-out: SMC Strain 9557-1, IC50) of 8.05.

Compound `O=S(=O)(c1ccccc1)c1c(OCCOc2no[n+]([O-])c2S(=O)(=O)c2ccccc2)no[n+]1[O-]` [Example 5] has a melting point of 187 to 189 °C.
